Source: patent US7482367B2, “Substituted benzimidazoles and methods of their use” (Novartis Vaccines and Diagnostics, Inc., priority 2005, dated 2009)
Like-named read-outs stand apart in the source and are kept apart here.

Tests used:
[1] = tested on: SKMEL-2 (wild-type Raf, mutant N-Ras); conditions: SKMEL-2 cells; 0.1 μM to 10 μM; 4 hours of incubation
Colo205 (cell line) = experiment: cells; conditions: Homo sapiens, COLO 205, 168 h
WM1799 (cell line) = experiment: cells; conditions: WM-1799, 168 h
human tumor isolate #5 [2] = conditions: Colorectal tumor, K-Ras
[3] = type: in vivo, Nu/Nu mice; conditions: for Mean body weight loss on day 28: 100 mg/kg per dose
Experimental: Therefore, the most efficacious dosage of 100 mg/kg was further evaluated as described below.

[4] = tested on: SKMEL-28 (mutant B-Raf V600E); experiment: cells; conditions: Homo sapiens, SK-MEL-28, read-out: pERK inhibition EC50
[5] = type: in vivo, mice; conditions: at target plasma concentration, corrected for protein binding
human tumor isolate #5 [6] = experiment: cells; conditions: Colorectal tumor, K-Ras
human tumor isolate #1 = experiment: cells
human tumor isolate #4 [7] = experiment: cells; conditions: Pancreatic tumor, K-Ras
human tumor isolate #4 [8] = conditions: Pancreatic tumor, K-Ras
HT-29 (cell line) = experiment: cells; conditions: Homo sapiens, HT-29, 168 h
Plasma protein binding = type: in vitro ADME
[9] = tested on: HT-29 (B-Raf V600E) colorectal carcinoma tumors; conditions: HT29, q2 d × 14, oral
human tumor isolate #6 = experiment: cells
human tumor isolated #7 = experiment: tissue or blood
human tumor isolate #3 = experiment: cells
human tumor isolate #2 = experiment: cells
[10] = tested on: CHL-1 (wild-type Raf, wild-type Ras); conditions: CHL-1 cells; 0.1 μM to 10 μM; 4 hours of incubation

- EC50 (Colo205 (cell line)): 0.13 µM
- EC50 (WM1799 (cell line)): < 0.0098 µM
- EC50 (human tumor isolate #5 [2]): 1.2 µM
- average loss of starting body weight by day 14 ([3]; daily dosing, 30 mg/kg and 100 mg/kg dose levels): 10%
- EC50 [4]: 0.1 µM
- rough estimation of free drug concentration [5]: approximately 0.135 μM
- EC50 (human tumor isolate #5 [6]): ~1 µM
- EC50 (human tumor isolate #1): 0.055 µM
- EC50 (human tumor isolate #4 [7]): ~1 µM
- EC50 (human tumor isolate #4 [8]): 1.27 µM
- EC50 (HT-29 (cell line)): 0.026 µM
- protein bound in plasma (Plasma protein binding): greater than 99.9%
- EC50 (human tumor isolate #6): > 1 µM
- EC50 (human tumor isolated #7): > 1 µM
- EC50 (human tumor isolate #3): 0.57 µM
- EC50 (human tumor isolate #2): 0.2 µM
SMILES: Cn1c(Nc2ccc(C(F)(F)F)cc2)nc2cc(Oc3ccnc(-c4ncc(C(F)(F)F)[nH]4)c3)ccc21 [Example 1, {1-Methyl-5-[2-(5-trifluoromethyl-1H-imidazol-2-yl)-pyridin-4-yloxy]-1H-benzoimidazol-2-yl}-(4-trifluoromethyl-phenyl)-amine]
- inhibition of Raf downstream signaling (MEK phosphorylation) [1]: potent inhibitor of Raf downstream signaling
- Mean body weight loss on day 28 ([3]; q2 d): 12%
- Mean body weight loss on day 28 ([3]; q3 d): 8%
- Mean body weight loss on day 28 ([3]; q4 d): 7%
- TGI/Regression ([9]; 10 mg/kg): 12% TGI
- TGI/Regression ([9]; 100 mg/kg): tumor regression
- inhibition of Raf downstream signaling (MEK phosphorylation) [10]: potent inhibitor of Raf downstream signaling
